Active and inactive are the calls of the source. No cut-off for these calls is given here.
What was measured:
[1] = target: T1, Bromodomain and extra-terminal motif (BET) (Homo sapiens) (UniProt P25440+O60885+Q58F21+Q15059); settings: ANBL-6, dose lower 40.0 nM, dose upper […]
[2] = Synergistic antiproliferative activity against human ANBL-6 BR resistant cells assessed as reduction in cell viability at ED50 incubated for 72 hrs in presence of bortezomib by MTS assay; format: functional
[3] = system: Bortezomib-resistant ANBL6; experiment: Induction of apoptosis in human bortezomib-resistant ANBL6 cells assessed as early apoptosis at 1600 nM incubated for 72 hrs by annexin V and 7-AAD staining by flow cytometry analysis (Rvb=15 %); format: functional
[4] = target: T1, Bromodomain and extra-terminal motif (BET) (Homo sapiens); settings: Bortezomib-resistant ANBL6 cell, dose lower 40.0 nM, dose upper […]
[5] = system: Bortezomib-resistant ANBL6; experiment: Synergistic apoptosis activity in human bortezomib-resistant ANBL6 cells assessed as early apoptosis at 1600 nM incubated for 72 hrs in the presence of BTZ by annexin V and 7-AAD staining by flow cytometry analysis (Rvb=15 %); format: functional
[6] = target: T1, Bromodomain and extra-terminal motif (BET) (Homo sapiens); settings: ANBL-6, dose lower 40.0 nM, dose upper […]; remark: listed apart in the source
[7] = Synergistic antiproliferative activity against human melphalan-resistant RPMI-8226 cells assessed as reduction in cell viability at ED90 incubated for 72 hrs in presence of bortezomib by MTS assay; format: functional, Melphalan-resistant RPMI-8226 cell
[8] = system: Bortezomib-resistant ANBL6; experiment: Induction of apoptosis in human bortezomib-resistant ANBL6 cells assessed as viable at 160 nM incubated for 72 hrs by annexin V and 7-AAD staining by flow cytometry analysis (Rvb=80 %); format: functional
[9] = system: ANBL-6; experiment: Synergistic apoptosis activity in wild-type human ANBL-6 cells assessed as early apoptosis at 1600 nM incubated for 48 hrs in the presence of BTZ by annexin V and 7-AAD staining by flow cytometry analysis; format: functional
[10] = system: RPMI-8226; experiment: Synergistic antiproliferative activity against wild-type human RPMI-8226 cells assessed as reduction in cell viability at ED75 incubated for 72 hrs in presence of bortezomib by MTS assay; format: functional
[11] = system: ANBL-6; experiment: Induction of apoptosis in wild-type human ANBL-6 cells assessed as viable at 1600 nM incubated for 72 hrs by annexin V and 7-AAD staining by flow cytometry analysis (Rvb=59 %); format: functional
[12] = system: ANBL-6; experiment: Induction of apoptosis in wild-type human ANBL-6 cells assessed as early apoptosis at 1600 nM incubated for 72 hrs by annexin V and 7-AAD staining by flow cytometry analysis (Rvb=14 %); format: functional

Compound: Cc1sc2c(c1C)C(c1ccc(Cl)cc1)=N[C@@H](CC(N)=O)c1nnc(C)n1-2
- inhibition [1]: Dose-Dependent Effect
- CI [2]: 0.718
- Activity [3]: 30%
- inhibition [4]: inactive
- Activity [5]: 67%
- inhibition [6]: Active
- CI [7]: 0.569
- Activity [8]: 78%
- CI [9]: 0.24
- CI [10]: 1.15
- Activity [11]: 31%
- Activity [12]: 31%

From ChEMBL document CHEMBL5715952 (Oncotarget, 2015)
